{"source": "patent US20120115151A1", "about": "“METHOD FOR TESTING A SUBJECT THOUGHT TO BE PREDISPOSED TO HAVING METASTATIC CANCER USING DELTA133P53BETA” (CENTRE NATIONAL DE LA RECHERCHE SCIENTIFIQUE (CNRS), priority 2009, published 2012)", "tested_on": "hct116 cells transfected with GFP-tagged Δ133p53 isoforms", "assay": "Matrigel Transwell invasion assay in the presence of the ROCK inhibitor", "type": "cell-based", "details": "Y27632 at 10 μM; cells expressing Δ133p53 isoforms invading through Matrigel", "method": "Y27632 was purchased from calbiochem and was used at 10 μM in all experiments. The quantification of cell invasion was carried out in Transwell cell culture chambers containing fluorescence-blocking polycarbonate porous membrane inserts (Fluoroblock; #351152; BD Biosciences; pore size 8 μm). 100 μl of 2 mg/mL Matrigel with reduced growth factors (a commercially prepared reconstituted BM from Englebreth-Holm-Swarm tumours, #354230; BD Biosciences) were prepared in a Transwell. Cells were transfected and treated or not with Y27632 as monolayers before trypsinization and plating (10·10^4) in 2% FCS containing media on top of a thick layer (around 500 μm) of Matrigel contained within the upper chamber of a Transwell. Controls were left untreated. The upper and lower chambers were then filled with respectively 2% FCS containing media and media with 10% FCS, thus establishing a soluble gradient of chemo-attractant that permits cell invasion throughout the Matrigel. Cells were allowed to invade at 37° C., 5% CO2 through the gel before fixing for 15 min in 3.7% formaldehyde. Cells that had invaded through the Matrigel were detected on the lower side of the filter by GFP fluorescence and counted for cell number. All the surface of the filter is counted and each assay was performed twice in triplicate for each condition. […]", "data": [{"compound": "C[C@@H](N)[C@H]1CC[C@H](C(=O)Nc2ccncc2)CC1", "note": "[Y27632]", "values": [{"measurement": "invasiveness of transfected cells", "value": "highly reduced"}]}]}
